The record followed here is US20260021092A1, “STRUCTURE-BASED DESIGN OF A NOVEL CLASS OF DRUGS FOR NEURODEGENERATIVE DISEASE” (The Regents of the University of California, priority 2022, published 2026).

One series deals with biosensor cells. The series can be described thus: Toxicity to biosensor cells under seeding assay conditions. Type of series: cell-based. The following applies: under the assayed conditions.
A further series has as its target α-synuclein fibrils (Homo sapiens, UniProt P37840). The series can be described thus: Table A function: disaggregators of amyloid fibrils (alpha-synuclein).
The target of a further series is tau fibrils (Homo sapiens, UniProt P10636). The series can be described thus: Table A function: disaggregators of amyloid fibrils (tau).
Chain of tau fibrils (P10636 1-441 isoform P10636-8): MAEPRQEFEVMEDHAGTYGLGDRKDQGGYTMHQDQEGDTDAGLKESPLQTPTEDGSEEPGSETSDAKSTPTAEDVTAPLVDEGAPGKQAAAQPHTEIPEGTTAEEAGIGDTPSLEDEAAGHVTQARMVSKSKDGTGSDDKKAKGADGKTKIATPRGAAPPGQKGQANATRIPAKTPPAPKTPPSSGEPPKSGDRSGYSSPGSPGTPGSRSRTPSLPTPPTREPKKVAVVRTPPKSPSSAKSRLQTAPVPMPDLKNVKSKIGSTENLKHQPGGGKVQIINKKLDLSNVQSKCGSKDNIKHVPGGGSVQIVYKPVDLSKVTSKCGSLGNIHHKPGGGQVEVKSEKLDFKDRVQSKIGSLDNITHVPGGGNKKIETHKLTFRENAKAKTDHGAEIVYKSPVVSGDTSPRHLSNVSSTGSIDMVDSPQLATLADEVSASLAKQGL

With `Oc1cccc(-c2c3nc(c(-c4cccc(O)c4)c4ccc([nH]4)c(-c4cccc(O)c4)c4nc(c(-c5cccc(O)c5)c5ccc2[nH]5)CC4)C=C3)c1` [FDA-A4, Temoporfin], in the series on biosensor cells, the “toxicity to biosensor cells” value is listed as “toxic”. As for `Cc1cc(NC(=O)Cc2ccccc2Cl)ccc1Br` [MOL06, N-(4-bromo-3-methylphenyl)-2-(2-chlorophenyl)acetamide], the Function result on α-synuclein fibrils is reported as “Dissociate α- synuclein fibrils”. As to `O=C1C(Cl)=C(Nc2ccc(Cl)cc2)C(=O)c2ccccc21` [MOL18, 2-chloro-3-[(4-chlorophenyl)amino]naphthalene-1,4-dione], the Function result on tau fibrils is “Dissociate tau fibrils”. On the same count and under the same terms, the entry for `COc1cccc2cc(C(=O)Nc3cccc(-c4cn5ccccc5n4)c3)c(=O)oc12` [compound 1541, N-(3-(imidazo[1,2-a]pyridin-2-yl)phenyl)-8-methoxy-2-oxo-2H-chromene-3-carboxamide] is “Dissociate tau fibrils”.
